From PubChem BioAssay AID248 (DTP/NCI, 2004)
Values joined by “and” are separate entries in the source; they are usually repeats but may differ in a detail not shown here. Equal values may be shown once. Toxic doses and inconclusive results are not listed. Square brackets hold non-standard residues; d marks the D form. Peptide text beside a SMILES is read from it. ξ: configuration not given here. Ac5c = NC1(C(=O)O)CCCC1; ξS = NC(CO)C(=O)O

System: L1210 leukemia ip in BDF1 mice, survival T/C
Test: NCI In Vivo Anticancer Drug Screen. Data for tumor model L1210 Leukemia (intraperitoneal) in B6D2F1 (BDF1) mice
Conditions: endpoint: mean survival time, higher = longer survival
Outline: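 Survival endpoint. Drug-treated group vs vehicle group, expressed as T divided by C. Tumor passaged by transplantation.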

[1] = dose: 100.0 mg/kg/injection, schedule: Q01DX001 (ip), vehicle: saline
[2] = dose: 200.0 mg/kg/injection, schedule: Q01DX001 (ip), vehicle: saline
[3] = dose: 400.0 mg/kg/injection, schedule: Q01DX001 (ip), vehicle: saline
[4] = dose: 100.0 mg/kg/injection, schedule: Q04DX003 (ip), vehicle: saline with Tween-80
[5] = dose: 200.0 mg/kg/injection, schedule: Q04DX003 (ip), vehicle: saline with Tween-80
[6] = dose: 400.0 mg/kg/injection, schedule: Q04DX003 (ip), vehicle: saline with Tween-80
[7] = dose: 100.0 mg/kg/injection, schedule: Q01DX009 (ip), vehicle: Klucel (hydroxypropylcellulose) (HPC)
[8] = dose: 200.0 mg/kg/injection, schedule: Q01DX009 (ip), vehicle: Klucel (hydroxypropylcellulose) (HPC)
[9] = dose: 400.0 mg/kg/injection, schedule: Q01DX009 (ip), vehicle: Klucel (hydroxypropylcellulose) (HPC)
[10] = dose: 100.0 mg/kg/injection, schedule: Q04DX003 (ip), vehicle: saline
[11] = dose: 200.0 mg/kg/injection, schedule: Q04DX003 (ip), vehicle: saline
[12] = dose: 400.0 mg/kg/injection, schedule: Q04DX003 (ip), vehicle: saline
[13] = dose: 100.0 mg/kg/injection, schedule: Q01DX001 (ip), vehicle: carboxymethylcellulose (CMC)
[14] = dose: 200.0 mg/kg/injection, schedule: Q01DX001 (ip), vehicle: carboxymethylcellulose (CMC)
[15] = dose: 400.0 mg/kg/injection, schedule: Q01DX001 (ip), vehicle: carboxymethylcellulose (CMC)
[16] = dose: 100.0 mg/kg/injection, schedule: Q01DX001 (ip), vehicle: saline with Tween-80
[17] = dose: 200.0 mg/kg/injection, schedule: Q01DX001 (ip), vehicle: saline with Tween-80
[18] = dose: 400.0 mg/kg/injection, schedule: Q01DX001 (ip), vehicle: saline with Tween-80
[19] = dose: 100.0 mg/kg/injection, schedule: Q01DX009 (ip), vehicle: saline with Tween-80
[20] = dose: 75.0 mg/kg/injection, schedule: Q01DX001 (ip), vehicle: saline

`CC[N+](CC)(CC)CCCC[N+](CC)(CC)CC` was tested, and the T/C (dose: 12.5 mg/kg/injection, schedule: Q01DX009 (ip), vehicle: water) was 100 % of control, the T/C (dose: 25.0 mg/kg/injection, schedule: Q01DX009 (ip), vehicle: water) was 96 % of control and the T/C (dose: 50.0 mg/kg/injection, schedule: Q01DX009 (ip), vehicle: water) was 90 % of control.

In the case of `COc1cc(C)nc(OC)n1`, the T/C [1] is reported as 96 % of control, the T/C [2] is reported as 96 % of control and the T/C [3] is reported as 96 % of control.

In the case of `c1ccc(N2CC2)cc1`, the T/C (dose: 100.0 mg/kg/injection, schedule: Q01DX001 (ip), vehicle: Klucel (hydroxypropylcellulose) (HPC)) is reported as 105 % of control, the T/C (dose: 200.0 mg/kg/injection, schedule: Q01DX001 (ip), vehicle: Klucel (hydroxypropylcellulose) (HPC)) is reported as 100 % of control and the T/C (dose: 400.0 mg/kg/injection, schedule: Q01DX001 (ip), vehicle: Klucel (hydroxypropylcellulose) (HPC)) is reported as 96 % of control.

In the case of `CNC(=O)C1NCCc2cc(OC)c(OC)cc21` (stereo unspecified), the T/C [1] is reported as 97 % of control, the T/C [2] is reported as 95 % of control and the T/C [3] is reported as 91 % of control.

With `CNC(=O)Oc1cccc(NC(=O)N(C(C)C)C(C)C)c1` the T/C [4] was 91 % of control, the T/C [5] was 89 % of control and the T/C [6] was 88 % of control.

For `COc1ccc(S(=O)(=O)F)cc1NC(=O)NCc1ccc([N+](=O)[O-])cc1`, the T/C [7] was 103 % of control, the T/C [8] was 110 % of control and the T/C [9] was 108 % of control.

`[O-][n+]1ccnc2ccccc21` was tested, and the T/C [10] was 100 % of control, the T/C [11] was 108 % of control and the T/C [12] was 110 % of control.

With `CC1=CC(=O)c2[nH]ncc2C1=O` the T/C (dose: 10.0 mg/kg/injection, schedule: Q01DX001 (ip), vehicle: water) was 93 % of control.

With `Cc1cc(=O)n(C)c2c(C)cccc12` the T/C [4] was 101 % of control, the T/C [5] was 98 % of control and the T/C [6] was 98 % of control.

For `NNc1nnc(-c2ccccc2)c2ccccc12`, the T/C (dose: 15.0 mg/kg/injection, schedule: Q01DX001 (ip), vehicle: carboxymethylcellulose (CMC)) was 95 % of control, the T/C (dose: 30.0 mg/kg/injection, schedule: Q01DX001 (ip), vehicle: carboxymethylcellulose (CMC)) was 101 % of control and the T/C (dose: 60.0 mg/kg/injection, schedule: Q01DX001 (ip), vehicle: carboxymethylcellulose (CMC)) was 100 % of control.

For `COc1ccc(NC(=O)Oc2ccccn2)cc1`, the T/C (dose: 25.0 mg/kg/injection, schedule: Q01DX009 (ip), vehicle: carboxymethylcellulose (CMC)) was 92 % of control and 100 % of control, the T/C (dose: 50.0 mg/kg/injection, schedule: Q01DX009 (ip), vehicle: carboxymethylcellulose (CMC)) was 93 % of control and 103 % of control and the T/C [13] was 97 % of control. The T/C (dose: 100.0 mg/kg/injection, schedule: Q04DX003 (ip), vehicle: carboxymethylcellulose (CMC)) was 93 % of control and 106 % of control, the T/C [14] was 101 % of control and the T/C (dose: 200.0 mg/kg/injection, schedule: Q04DX003 (ip), vehicle: carboxymethylcellulose (CMC)) was 97 % of control and 113 % of control. For the same compound, the T/C [15] was 113 % of control and the T/C (dose: 400.0 mg/kg/injection, schedule: Q04DX003 (ip), vehicle: carboxymethylcellulose (CMC)) was 97 % of control and 108 % of control.

`CCOC(=O)N1C2c3ccccc3C3C(C21)N3C(=O)OCC` (stereo unspecified) was tested, and the T/C [1] was 105 % of control, the T/C [2] was 102 % of control and the T/C [3] was 108 % of control.

With `CCC(=O)N(C)c1cccc(O)c1` the T/C [16] was 114 % of control, the T/C [17] was 94 % of control and the T/C [18] was 97 % of control.

`CCC(C)C(CCN(C)CC)(CNC(=O)CN(CC)CC)c1cccc2ccccc12` (stereo unspecified) was tested, and the T/C (dose: 50.0 mg/kg/injection, schedule: Q04DX002 (ip), vehicle: saline) was 106 % of control, the T/C (dose: 100.0 mg/kg/injection, schedule: Q01DX009 (ip), vehicle: saline) was 96 % of control and the T/C (dose: 100.0 mg/kg/injection, schedule: Q04DX002 (ip), vehicle: saline) was 97 % of control.

In the case of `NC(CO)C(=O)NC1(C(=O)O)CCCC1` (stereo unspecified) (H-[ξS]-[Ac5c]-OH), the T/C [1] is reported as 100 % of control, the T/C [2] is reported as 107 % of control and the T/C [3] is reported as 107 % of control.

With `Nc1cc2c(cc1I)-c1ccccc1C2=O` the T/C [13] was 94 % of control, the T/C [14] was 89 % of control and the T/C [15] was 97 % of control.

For `OC1(c2ccccc2)c2ccccc2C(O)(c2ccccc2)c2c1ccc1ccccc21` (stereo unspecified), the T/C [19] was 93 % of control and the T/C (dose: 400.0 mg/kg/injection, schedule: Q01DX009 (ip), vehicle: saline with Tween-80) was 93 % of control.

In the case of `C/C(=N/N=C(N)N)C(=O)O`, the T/C (dose: 15.0 mg/kg/injection, schedule: Q01DX Z (ip), vehicle: carboxymethylcellulose (CMC)) is reported as 101 % of control, the T/C (dose: 30.0 mg/kg/injection, schedule: Q01DX Z (ip), vehicle: carboxymethylcellulose (CMC)) is reported as 97 % of control and the T/C (dose: 60.0 mg/kg/injection, schedule: Q01DX Z (ip), vehicle: carboxymethylcellulose (CMC)) is reported as 100 % of control and 101 % of control. For the same compound, the T/C (dose: 120.0 mg/kg/injection, schedule: Q01DX Z (ip), vehicle: carboxymethylcellulose (CMC)) was 101 % of control and 103 % of control, the T/C (dose: 240.0 mg/kg/injection, schedule: Q01DX Z (ip), vehicle: carboxymethylcellulose (CMC)) was 112 % of control and the T/C (dose: 480.0 mg/kg/injection, schedule: Q01DX Z (ip), vehicle: carboxymethylcellulose (CMC)) was 98 % of control.

In the case of `COC(=O)c1ccc[n+](CCc2ccc(OC)c(OC)c2)c1`, the T/C [20] is reported as 111 % of control.

`O=C(O)C1(Cl)CC2C=CC1C2` (stereo unspecified) was tested, and the T/C (dose: 50.0 mg/kg/injection, schedule: Q01DX009 (ip), vehicle: gum acacia) was 99 % of control, the T/C (dose: 50.0 mg/kg/injection, schedule: Q01DX009 (ip), vehicle: saline with Tween-80) was 93 % of control and the T/C (dose: 100.0 mg/kg/injection, schedule: Q01DX009 (ip), vehicle: gum acacia) was 89 % of control. The T/C [19] was 96 % of control, the T/C (dose: 100.0 mg/kg/injection, schedule: Q04DX003 (ip), vehicle: gum acacia) was 101 % of control and the T/C [4] was 93 % of control. The T/C (dose: 200.0 mg/kg/injection, schedule: Q01DX009 (ip), vehicle: gum acacia) was 92 % of control, the T/C (dose: 200.0 mg/kg/injection, schedule: Q01DX009 (ip), vehicle: saline with Tween-80) was 94 % of control and the T/C (dose: 200.0 mg/kg/injection, schedule: Q04DX003 (ip), vehicle: gum acacia) was 95 % of control. For the same compound, the T/C [5] was 91 % of control.

For `C/C=C(\C#N)c1ccc(-c2ccccc2)cc1`, the T/C [16] was 94 % of control, the T/C [17] was 91 % of control and the T/C [18] was 98 % of control.

With `CN1CNC(=O)NC1` the T/C [7] was 113 % of control, the T/C (dose: 100.0 mg/kg/injection, schedule: Q04DX003 (ip), vehicle: Klucel (hydroxypropylcellulose) (HPC)) was 105 % of control and the T/C [8] was 105 % of control. The T/C (dose: 200.0 mg/kg/injection, schedule: Q04DX003 (ip), vehicle: Klucel (hydroxypropylcellulose) (HPC)) was 105 % of control, the T/C [9] was 103 % of control and the T/C (dose: 400.0 mg/kg/injection, schedule: Q04DX003 (ip), vehicle: Klucel (hydroxypropylcellulose) (HPC)) was 111 % of control.

With `CCOP(N)(=S)OCC` the T/C [20] was 102 % of control and the T/C (dose: 150.0 mg/kg/injection, schedule: Q01DX001 (ip), vehicle: saline) was 102 % of control.

For `C[n+]1ccc(Nc2ccc(NC(=O)c3ccc(Nc4cc[n+](C)c5ccc([N+](=O)[O-])cc45)cc3)cc2)cc1`, the T/C (dose: 1.0 mg/kg/injection, schedule: Q01DX009 (ip), vehicle: water) was 99 % of control, the T/C (dose: 2.0 mg/kg/injection, schedule: Q01DX009 (ip), vehicle: water) was 112 % of control and the T/C (dose: 4.0 mg/kg/injection, schedule: Q01DX009 (ip), vehicle: water) was 119 % of control. For the same compound, the T/C (dose: 8.0 mg/kg/injection, schedule: Q01DX009 (ip), vehicle: water) was 116 % of control, the T/C (dose: 16.0 mg/kg/injection, schedule: Q01DX009 (ip), vehicle: water) was 192 % of control and the T/C (dose: 32.0 mg/kg/injection, schedule: Q01DX009 (ip), vehicle: water) was 262 % of control. The T/C [10] was 201 % of control and 219 % of control, the T/C [11] was 213 % of control and the T/C [12] was 150 % of control and 153 % of control.

`COC(=O)C(C(=O)OC)C(Br)C(Br)C(Br)c1ccccc1` (stereo unspecified) was tested, and the T/C (dose: 75.0 mg/kg/injection, schedule: Q01DX001 (ip), vehicle: other) was 91 % of control, the T/C (dose: 150.0 mg/kg/injection, schedule: Q01DX001 (ip), vehicle: other) was 94 % of control and the T/C (dose: 300.0 mg/kg/injection, schedule: Q01DX001 (ip), vehicle: other) was 96 % of control.

With `CSc1nnc2scnn12` the T/C (dose: 50.0 mg/kg/injection, schedule: Q01DX001 (ip), vehicle: carboxymethylcellulose (CMC)) was 104 % of control, the T/C [13] was 104 % of control and the T/C [14] was 101 % of control.
